Read-outs that look alike come from different tables or passages of the source. Where no end group is shown, it is not given here.
Legend:
HLA DRB 1-4 = conditions: published studies; cited from earlier work
HLA-DRB1_4 = format: cell-based, human; conditions: for MCR surface expression: peptide covalently linked to beta chain, anti-HLA-DR APC antibody, FACS

Substance	presentation by HLA (HLA DRB 1-4)	MCR surface expression (HLA-DRB1_4)	other results
MP1 103-117: MP1 peptide comprising amino acids 103-117, known from published studies (Schmid et al Immunity 2007) (LKREITFHGAKEISL; UniProt P03485 103-117, looked up, fragment)	efficiently presented	–	–
MP1 107-121: MP1 peptide comprising amino acids 107-121, known from published studies (Schmid et al Immunity 2007) (ITFHGAKEISLSYSA; UniProt P03485 107-121, looked up, fragment)	efficiently presented	–	–
MP1103-120: influenza Matrix Protein 1 peptide, amino acids 103-120, covalently linked to the HLA beta chain of the MCR (LKREITFHGAKEISLSYS; also: covalently linked to HLA beta chain of the MCR; UniProt P03485 103-120, looked up, fragment)	–	efficient surface expression	MCR surface expression (HLA-DRB1_4; listed as MP1103-121): high surface expression
MP1107-117: core epitope of influenza Matrix Protein 1, amino acids 107-117, tested within peptides with different flanking regions (ITFHGAKEISL; UniProt P03485 107-117, looked up, fragment)	–	–	presentation (MCR surface expression) (HLA-DRB1_4; FIG. 6, anti-CD3e or anti-HLA-DR PE antibodies, peptides containing the core epitope with different flanking regions): efficiently be presented
MP162-72: influenza Matrix Protein 1-derived peptide comprising amino acids 62-72, covalently linked to the HLA beta chain of the MCR (FVFTLTVPSER; also: covalently linked to HLA beta chain of the MCR; UniProt P03485 62-72, looked up, fragment)	–	not the other HLAs tested	–
